Reference: PubChem BioAssay (NCI)
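Five concentrations, 48 hours, 96-well plates. TGI marks complete inhibition of growth.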

Key:
Assay in all cases: NCI anticancer screen, dose series, 48 h
MDA-MB-231 breast = test system: MDA-MB-231 breast
SNB-75 CNS = test system: SNB-75 CNS
MALME-3M melanoma = test system: MALME-3M melanoma
HCT-116 colon = test system: HCT-116 colon
MCF7 breast = test system: MCF7 breast
MOLT-4 leukemia = test system: MOLT-4 leukemia
SK-MEL-2 melanoma = test system: SK-MEL-2 melanoma
TK-10 renal = test system: TK-10 renal
K-562 leukemia = test system: K-562 leukemia
HT29 colon = test system: HT29 colon

| SMILES | TGI (MDA-MB-231 breast) [µM] | TGI (SNB-75 CNS) [µM] | TGI (MALME-3M melanoma) [µM] | TGI (HCT-116 colon) [µM] | TGI (MCF7 breast) [µM] | TGI (MOLT-4 leukemia) [µM] | TGI (SK-MEL-2 melanoma) [µM] | TGI (TK-10 renal) [µM] | TGI (K-562 leukemia) [µM] | TGI (HT29 colon) [µM] |
| --- | --- | --- | --- | --- | --- | --- | --- | --- | --- | --- |
| CN(C)CC(C)(C)CN1c2ccccc2Sc2ccccc21 | 24.3 | 18 | 27.9 | 26.7 | 30 | 20.8 | 28.8 | 26.9 | 22.8 | 22.6 |
| C=CCOCn1cnc2c(=O)[nH]c(N)nc21 | > 100 | > 100 | > 100 | > 100 | > 100 | > 100 | > 100 | > 100 | > 100 | – |
| Nc1ccc(C2SCC(=O)N2NS(=O)(=O)c2cccc(C(=O)O)c2)cc1 (stereo unspecified) | > 100 | > 100 | 55.7 | > 100 | > 100 | > 100 | > 100 | > 100 | > 100 | > 100 |
| NC(CSCSCC(N)C(=O)O)C(=O)O (stereo unspecified) | – | > 225 | > 225 | > 225 | > 225 | > 225 | > 225 | – | > 225 | > 225 |
| C/C(CCN(C)C)=N\OC(=O)c1ccccc1 | – | > 100 | > 100 | > 100 | – | > 100 | > 100 | > 100 | > 100 | > 100 |
| COc1ccc(C=O)cc1OS(=O)(=O)C(F)(F)C(F)(F)C(F)(F)C(F)(F)F | > 70.3 | > 90.4 | > 69 | > 70.4 | > 100 | > 20 | 43.9 | > 82.9 | – | > 90.5 |
| COC(=O)[C@H](Cc1ccccc1)NC(=O)N(CCNC(=O)OC(C)(C)C)c1ccccc1 | > 100 | > 100 | > 100 | > 100 | > 100 | > 100 | > 100 | – | > 100 | > 100 |
| O=C(NC(OCc1ccccc1)(C(F)(F)F)C(F)(F)F)OCc1ccccc1 | 32.3 | 29 | 31.9 | 29.9 | 30.1 | 38.6 | 28.7 | 20.9 | 36.8 | 32.2 |
| Cn1c(=O)n(C2(C)CSC2)c2ccccc21 | – | > 100 | – | > 100 | – | > 100 | – | > 100 | > 100 | > 100 |
| CCOC(=O)c1cc([N+](=O)[O-])c(Sc2ncnc3nc[nH]c23)c([N+](=O)[O-])c1 | 19.5 | – | 18.1 | 3.94 | 3.41 | – | 24.6 | 5.81 | – | 14.5 |
| OCC1OC(n2cnc3c(Cl)nc(Nc4ccc(Cl)c(Cl)c4)nc32)CC1O (stereo unspecified) | 23.5 | 42.2 | 21.2 | 28.9 | 27.5 | 12.5 | 19.2 | 35.6 | 49.4 | 15.2 |
| CCOC(=O)CC1Nc2ccccc2C12CCc1c([nH]c3ccccc13)C2C(=O)OCC (stereo unspecified) | > 100 | 4.72 | 51.6 | > 100 | > 100 | > 100 | > 100 | > 100 | > 100 | 40.1 |
| C/C(=N\O)c1cccc(Nc2c3ccccc3nc3occc23)c1 | > 100 | – | 9.7 | 18.8 | 34 | > 100 | 25.2 | 44.3 | > 100 | 95.7 |
| C[C@@H](c1ccccc1)N1CO[C@@]2(C#Cc3ccc4c(c3)OCO4)CCC[C@@H]12 | 28.2 | 27.9 | – | 29.1 | > 100 | 48.2 | 34.3 | 28.8 | 96.2 | 34.6 |
| COc1ccc(/C=C/C(=O)CCN2CCN(CCC(=O)/C=C/c3ccc(OC)cc3)CC2)cc1 | 25.2 | 58.6 | 35.9 | 11.1 | 13.6 | > 100 | 42 | 28 | 37.9 | 23.8 |
| NS(=O)(=O)c1ccc(NC(=O)c2ccc3nc4ccccc4c(Nc4ccc(S(N)(=O)=O)cc4)c3c2)cc1 | > 100 | > 100 | > 100 | > 100 | > 100 | > 100 | > 100 | > 100 | > 100 | > 100 |
| CC(C)[Si](Oc1ccc(CC2N(C(=O)c3ccc([N+](=O)[O-])cc3)C(CCc3ccccc3)CC2(C)C=O)cc1)(C(C)C)C(C)C (stereo unspecified) | 95.5 | – | > 100 | – | – | – | > 100 | > 100 | – | – |
| CCCCCCc1cc2cc(C(=O)Nc3cccc(F)c3)c(=N)oc2cc1O | – | – | 8.75 | 11.1 | 11.7 | 7.69 | 5.44 | – | 10.5 | 78.6 |
| CCOc1cc2c(cc1O)C(=O)C[C@@H]1[C@@H]2CC[C@]2(C)[C@@H](O)CC[C@@H]12 | 61.8 | – | > 9.3 | 38 | > 100 | > 31.7 | > 58.1 | > 100 | 2.27 | 29.9 |
| COC(=O)c1c2c(cc3c1CC1(C3)Cc3cc4c(c(C(=O)OC)c3C1)CCC4)CCC2 | > 100 | – | > 100 | > 100 | > 100 | > 100 | > 100 | > 100 | > 100 | > 100 |
| O=C(Nc1ccc(F)cc1)c1cc2c(cc1Cl)Sc1nccn1S2(=O)=O | > 100 | 46.9 | > 100 | > 100 | > 100 | > 100 | > 100 | – | > 100 | > 100 |
| COc1ccc(Nc2cc(=O)[nH]c(=O)[nH]2)cc1 | > 100 | > 100 | > 100 | > 100 | > 100 | > 100 | – | > 100 | > 100 | > 100 |
